Measured values: patent US20040228872A1 (priority 2003, published 2004)

What was measured:
foreleg flexor muscles = settings: mouse, in vivo
[1] = test system: orbicularis oculi muscles; settings: guinea pig, in vivo
[2] = in vivo; cited from earlier work

O=c1c(-c2ccc(O)cc2)coc2cc(O)cc(O)c12 [genistein, 5,7-dihydroxy-3-(4-hydroxyphenyl)-4H-1-benzopyran-4-one]
Grip strength recovery (percent of untreated baseline grip strength) (foreleg flexor muscles): retarded | Delay of time to 50% recovery of blinks (blink amplitude) [1]: approximately 10 days | Recovery of blinks after surgery [1]: full recovery within a week | Reduction of blink amplitude after surgery [1]: ≤ 10% | Tolerability of dietary intake [2]: without obvious ill effects
